Experimental data: patent publication US12037386B2, “Antibodies to PfGARP kill Plasmodium falciparum malaria parasites and protect against infection and severe disease” (priority 2020, dated 2024)
Like-named read-outs stand apart in the source and are kept apart here.

Columns and labels:
[1] = system: food vacuole of parasites; conditions: cited from earlier work
Ring stage 3D7 parasites = assay: Food vacuole integrity, Fluo-4-AM confocal microscopy; assay type: cell-based, Plasmodium falciparum; conditions: 1 μM, positive control, 24 hours
Protocol: FIG. 17 are images showing that anti-PfGARP disrupts food vacuole integrity. Ring stage 3D7 parasites were treated with pre-immune sera (1:10), 1 μM chloroquine, or anti-PfGARP antisera (1:10) for 24 hours, followed by staining with DAPI and Fluo-4-AM. […] Data are representative of 2 independent experiments.
The impact of anti-PfGARP antibodies on food vacuole integrity by confocal microscopy was evaluated using the calcium binding dye Fluo-4-AM, which preferentially labels the food vacuole and has been used to distinguish the food vacuole from the endoplasmic reticulum (Zhang, M. et al. Science 360 (2018)).
The impact of anti-PfGARP antibodies on food vacuole integrity was further evaluated by confocal microscopy using the calcium binding dye Fluo-4-AM, which specifically labels the food vacuole. Ring stage 3D7 parasites were incubated with culture media (negative control), 1 μM chloroquine (positive control), or anti-PfGARP prepared by rPfGARP-A immunization for 24 hours. Parasites were washed with 1×PBS three times and incubated with Fluo-4-AM (a cell-permeable calcium-sensing dye that fluoresces green when bound with Ca^+2) at a final concentration of 2 μM and DAPI for 30 minutes, at 37° C. The parasites were washed with 1×PBS and observed under a fluorescent microscope.

## CCN(CC)CCCC(C)Nc1ccnc2cc(Cl)ccc12 (stereo not drawn) [chloroquine]
[1]; high concentrations (3 μM)
  effect on food vacuole: disrupts the food vacuole membrane
[1]; lower concentrations (68 nM)
  effect on food vacuole: marked food vacuole swelling, but no extravasation of hemozoin into the cytoplasm
Ring stage 3D7 parasites
  food vacuole integrity (Fluo-4-AM redistribution): disrupts the food vacuole leading to dispersion of the dye into the parasite's cytosol
